Measurements: US8481600B2, “Formulation of aspirin that is stable and showing minimal hydrolysis for parenteral administration for the treatment of cardiovascular and other disease states” (Academic Pharmaceuticals, Inc., priority 2007, dated 2013)

Test: Dissolution of ASA in buffers and solvent systems (clear solution or suspension)
Assay type: physicochemical
Settings: for Dissolution of aspirin in buffer: aspirin 10 to 50 mg/ml in 10 ml; for Dissolution of aspirin in solvent system: aspirin up to 75 mg/ml
Protocol: Parenteral solutions comprising aspirin in buffers are typically prepared by mixing the required amount of aspirin in the buffer. The process is preferably carried out at room temperature, although other temperatures are acceptable for these preparations.
ASA (aspirin) was attempted to be dissolved in a number of solvent systems and then stability was determined if these solutions provided clear, colorless dissolution of ASA. In the following buffers aspirin was found riot to be soluble. These buffers are listed below: • 1.
In another series of experiments, dissolution of aspirin in solvents that are listed below were attempted to provide parenteral solutions suitable for intravenous administration comprising an effective amount of aspirin. […] The pH of the solutions ranged from 1.5 to 6.8. Ph adjustments were made using 1N NaOH solution. • 1. To water (2.0 ml), 1-propanol (0.5 ml) and Tween 20 (0.5 ml) was added to aspirin at a concentration level of up to 75 mg/ml. […] To water (2.0 ml), 1-propanol (0.5 ml) and Tween 40 (0.5 ml) was added to aspirin at a concentration level of up to 75 mg/ml. […] To water (2.0 ml), 1-propanol (0.5 ml) and Tween 60 (0.5 ml) was added to aspirin at a concentration level of up to 75 mg/ml. […] To water (2.0 ml), 1-propanol (0.5 ml) and Tween 80 (0.5 ml) was added to aspirin at a concentration level of up to 75 mg/ml. […] To water (2.0 ml), 1-propanol (0.5 ml) and PEG 300 was added to aspirin at a concentration level of up to 75 mg/ml. […] To water (2.0 ml), 1-propanol (0.5 ml) and PEG 400 was added to aspirin at a concentration level of up to 75 mg/ml. […] To water (2.0 ml), 1-propanol (0.5 ml) and PEG 600 was added to aspirin at a concentration level of up to 75 mg/ml. […] To water (2.0 ml), 1-propanol (0.5 ml) and glycerol was added to aspirin at a concentration level of up to 75 mg/ml. […] To water (2.0 ml), DMSO (1-2%) and Tween 20 was added to aspirin at a concentration level of up to 75 mg/ml. […] To water (2.0 ml), DMSO (1-2%) and Tween 40 was added to aspirin at a concentration level of up to 75 mg/ml. […] To water (2.0 ml), DMSO (1-2%) and Tween 60 was added to aspirin at a concentration level of up to 75 mg/ml. […] To water (2.0 ml), DMSO (1-2%) and Tween 80 was added to aspirin at a concentration level of up to 75 mg/ml. […] To glycerine (1 ml), 1-propanol (3 ml) and Tween 80 (0.2 ml) was added to aspirin at a concentration level of up to 75 mg/ml. […] To glycerine (1 ml), 1,2-propanol and Tween 80 (0.2 ml) was added to aspirin at a concentration level, of up to 75 mg/ml. […] To glycerine (1 ml), PEG 300 and Tween 80 (0.2 ml) was added to aspirin at a concentration of up to 75 mg/ml. […] To glycerine (1 ml), PEG 400 and Tween 80 (0.2 ml) was added to aspirin at a concentration of up to 75 mg/ml. […] To glycerine (1 ml), PEG 600 and Tween 80 (0.2 ml) was added to aspirin at a concentration of up to 75 mg/ml.
• 1. To N,N-Dimethylacetamide (NNDMA) (10 ml), aspirin was added at a concentration level of up to 500 mg/ml. […] To N,N-Dimethylacetamide (NNDMA) (10 ml) and ASA, glycerol (0.1 in 10 ml) added, Tween 20 (0.1 in 10 ml) were added. […] To N,N-Dimethylacetamide (NNDMA) (10 ml) and ASA, glycerol (0.1 in 10 ml), Tween 40 (0.1 in 10 ml) were added. […] To N,N-Dimethylacetamide (NNDMA) (10 ml) and ASA, glycerol (0.1 in 10 ml), Tween 60 (0.1 in 10 ml) were added. […] To N,N-Dimethylacetamide (NNDMA) (10 ml) and ASA, glycerol (0.1 in 10 ml), Tween 80 (0.1 in 10 ml) were added. […] To N,N-Dimethylacetamide (NNDMA) (10 ml) and ASA, glycerol (0.1 in 10 ml) were added. […] To N,N-Dimethylacetamide (NNDMA) (10 ml) and ASA, glycerol (0.1 in 10 ml), and DMSO (1-2%) were added. […] To N,N-Dimethylacetamide (NNDMA) (10 ml) and ASA, DMSO (1-2%) was added. […] The amount of aspirin present was greater than 98% at room temperature for 6 months. […]

CC(=O)Oc1ccccc1C(=O)O [ASA, aspirin]
solubility in N,N-dimethylacetamide: readily soluble
Dissolution of ASA in NNDMA and other diluents: appearance (1. N,N-Dimethylacetamide (NNDMA) (10 ml), aspirin up to 500 mg/ml): Clear Purity
Dissolution of ASA in NNDMA and other diluents: appearance (1. N,N-Dimethylacetamide (NNDMA) (10 ml), aspirin up to 500 mg/ml, listed as aspirin): clear solution
Dissolution of ASA in NNDMA and other diluents: appearance (2. NNDMA (10 ml), Glycerol (0.1 in 10 ml), Tween 20 (0.1 in 10 ml)): clear solution
Dissolution of ASA in NNDMA and other diluents: appearance (3. NNDMA (10 ml), Glycerol (0.1 in 10 ml), Tween 40 (0.1 in 10 ml)): clear solution
Dissolution of ASA in NNDMA and other diluents: appearance (4. NNDMA (10 ml), Glycerol (0.1 in 10 ml), Tween 60 (0.1 in 10 ml)): clear solution
Dissolution of ASA in NNDMA and other diluents: appearance (5. NNDMA (10 ml), Glycerol (0.1 in 10 ml), Tween 80 (0.1 in 10 ml)): clear solution
Dissolution of ASA in NNDMA and other diluents: appearance (6. NNDMA (10 ml), Glycerol (0.1 in 10 ml)): clear solution
Dissolution of ASA in NNDMA and other diluents: appearance (7. NNDMA (10 ml), Glycerol (0.1 in 10 ml), DMSO (1-2%)): clear solution
Dissolution of ASA in NNDMA and other diluents: appearance (8. NNDMA (10 ml), DMSO (1.2%) (text: 1-2%)): clear solution
Dissolution of ASA in buffer (AMPSO buffer 0.05 M, aspirin 10 to 50 mg/ml in 10 ml (″ = not soluble), listed as aspirin): suspension that was not clear
Dissolution of ASA in buffer (AMPSO buffer 0.10 M, aspirin 10 to 50 mg/ml in 10 ml (″ = not soluble), listed as aspirin): suspension that was not clear
Dissolution of ASA in buffer (Bicine buffer 0.10 M, aspirin 10 to 50 mg/ml in 10 ml (″ = not soluble), listed as aspirin): suspension that was not clear
Dissolution of ASA in buffer (Bis Tris buffer 0.05 M, aspirin 10 mg/ml to 50 mg/ml in 10 ml): 0.05 M not soluble
Dissolution of ASA in buffer (Bis Tris buffer 0.05 M, aspirin 10 mg/ml to 50 mg/ml in 10 ml, listed as aspirin): suspension that was not clear
Dissolution of ASA in buffer (Bis Tris buffer 0.10 M, aspirin 10 mg/ml to 50 mg/ml in 10 ml): 0.10 M not soluble
Dissolution of ASA in buffer (Bis Tris buffer 0.10 M, aspirin 10 mg/ml to 50 mg/ml in 10 ml, listed as aspirin): suspension that was not clear
Dissolution of ASA in buffer (CAPS buffer 0.05 M, aspirin 10 to 50 mg/ml in 10 ml (″ = not soluble), listed as aspirin): suspension that was not clear
Dissolution of ASA in buffer (CAPS buffer 0.10 M, aspirin 10 to 50 mg/ml in 10 ml (″ = not soluble), listed as aspirin): suspension that was not clear
Dissolution of ASA in buffer (HEPES buffer 0.05 M, aspirin 10 to 50 mg/ml in 10 ml (″ = not soluble), listed as aspirin): suspension that was not clear
Dissolution of ASA in buffer (HEPES buffer 0.10 M, aspirin 10 to 50 mg/ml in 10 ml (″ = not soluble), listed as aspirin): suspension that was not clear
solubility (N,N-dimethylacetamide (NNDMA), organic solvent or mixture, thermodynamic from solid, read-out: concentration at which aspirin was found to be soluble in NNDMA): ≤ 500 mg/mL
Dissolution of ASA in buffer (Saline (normal) 0.10 M, aspirin 10 to 50 mg/ml in 10 ml (″ = not soluble), listed as aspirin): suspension that was not clear
Dissolution of ASA in buffer (TAPS buffer 0.05 M, aspirin 10 to 50 mg/ml in 10 ml (″ = not soluble), listed as aspirin): suspension that was not clear
Dissolution of ASA in buffer (TAPS buffer 0.10 M, aspirin 10 to 50 mg/ml in 10 ml (″ = not soluble), listed as aspirin): suspension that was not clear
Dissolution of ASA in buffer (Tricine buffer 0.10 M, aspirin 10 to 50 mg/ml in 10 ml (″ = not soluble), listed as aspirin): suspension that was not clear
Dissolution of aspirin in buffer (Tricine buffer (0.1M), list item 7): suspension that was not clear
Dissolution of aspirin in buffer (bicine buffer (0.1M), list item 8): suspension that was not clear
Dissolution of aspirin in solvent system (glycerine (1 ml), 1,2-propanol, Tween 80 (0.2 ml)): clear solution
Dissolution of aspirin in solvent system (glycerine (1 ml), 1-propanol (3 ml), Tween 80 (0.2 ml)): clear solution
Dissolution of aspirin in solvent system (glycerine (1 ml), PEG 300, Tween 80 (0.2 ml)): clear solution
Dissolution of aspirin in solvent system (glycerine (1 ml), PEG 400, Tween 80 (0.2 ml)): clear solution
Dissolution of aspirin in solvent system (glycerine (1 ml), PEG 600, Tween 80 (0.2 ml)): clear solution
Dissolution of aspirin in buffer (sodium acetate (pH 6.5 and 3.8) buffer (0.1M), list item 6): suspension that was not clear
Dissolution of aspirin in buffer (sodium acetate pH 6.5 and 3.8 buffer (0.1M), list item 15): suspension that was not clear
Dissolution of aspirin in solvent system (water (2.0 ml), 1-propanol (0.5 ml), PEG 300): clear solution
Dissolution of aspirin in solvent system (water (2.0 ml), 1-propanol (0.5 ml), PEG 400): clear solution
Dissolution of aspirin in solvent system (water (2.0 ml), 1-propanol (0.5 ml), PEG 600): clear solution
Dissolution of aspirin in solvent system (water (2.0 ml), 1-propanol (0.5 ml), Tween 20 (0.5 ml)): clear solution
Dissolution of aspirin in solvent system (water (2.0 ml), 1-propanol (0.5 ml), Tween 40 (0.5 ml)): clear solution
Dissolution of aspirin in solvent system (water (2.0 ml), 1-propanol (0.5 ml), Tween 60 (0.5 ml)): clear solution
Dissolution of aspirin in solvent system (water (2.0 ml), 1-propanol (0.5 ml), Tween 80 (0.5 ml)): clear solution
Dissolution of aspirin in solvent system (water (2.0 ml), 1-propanol (0.5 ml), glycerol): clear solution
Dissolution of aspirin in solvent system (water (2.0 ml), DMSO (1-2%), Tween 20): clear solution
Dissolution of aspirin in solvent system (water (2.0 ml), DMSO (1-2%), Tween 40): clear solution
Dissolution of aspirin in solvent system (water (2.0 ml), DMSO (1-2%), Tween 60): clear solution
Dissolution of aspirin in solvent system (water (2.0 ml), DMSO (1-2%), Tween 80): clear solution
